According to patent US20230322659A1, “STROBILURIN TYPE COMPOUNDS AND THEIR USE FOR COMBATING PHYTOPATHOGENIC FUNGI” (priority 2020, published 2023):

Assays:
[1] = tested on: Phakopsora pachyrhizi (strain with amino acid substitution F129L in the mitochondrial cytochrome b protein); test: Use Example 1: protective control of soybean rust on soybeans (PHAKPA P2), greenhouse; format: in vivo; conditions: soybean seedlings inoculated 2 days after treatment, % diseased leaf area; for % PHAKPA Disease level P2 at 4 ppm: 4 ppm spray; for % PHAKPA Disease level P2 at 16 ppm: 16 ppm spray
Method: (§1) The compound was dissolved in a mixture of acetone and/or dimethylsulfoxide and the wetting agent/emulsifier Wettol, which is based on ethoxylated alkylphenoles, in a ratio (volume) solvent-emulsifier of 99 to 1 to give a total volume of 5 ml. Subsequently, water was added to total volume of 100 ml. This stock solution was then diluted with the described solvent-emulsifier-water mixture to the final concentration given in the table below.
(§2) Leaves of potted soybean seedlings were sprayed to run-off with the previously described spray solution, containing the concentration of active ingredient or their mixture as described below. The plants were allowed to air-dry. The trial plants were cultivated for 2 days in a greenhouse chamber at 23-27° C. and a relative humidity between 60 and 80%. Then the plants were inoculated with spores of Phakopsora pachyrhizi. The strain used contains the amino acid substitution F129L in the mitochondrial cytochrome b protein conferring resistance to Qo inhibitors. To ensure the success the artificial inoculation, the plants were transferred to a humid chamber with a relative humidity of about 95% and 20 to 24° C. for 24 hr. The trial plants were cultivated for up to 14 days in a greenhouse chamber at 23 to 27° C. and a relative humidity between 60 and 80%. The extent of fungal attack on the leaves was visually assessed as % diseased leaf area, the disease level of untreated controls was usually higher than 85%.
(§3) All test results below are given for the control of phytopathogenic fungi containing the amino acid substitution F129L in the mitochondrial cytochrome b protein conferring resistance to Qo inhibitors.

[2] = tested on: Phakopsora pachyrhizi (strain with amino acid substitution F129L in the mitochondrial cytochrome b protein); test: Use Example 2: protective control of soybean rust on soybeans (PHAKPA P6), greenhouse; format: in vivo; conditions: soybean seedlings inoculated six days after treatment, % diseased leaf area; for % PHAKPA Disease level P6 at 4 ppm: 4 ppm spray; for % PHAKPA Disease level P6 at 16 ppm: 16 ppm spray
Method: as §1
as §2, with “active ingredient as described” for “active ingredient or their mixture as described”, “cultivated for six days in” for “cultivated for 2 days in”, “95% and 23 to 27°” for “95% and 20 to 24°”, “23 to 27° C. for” for “20 to 24° C. for”
as §3

Structure (SMILES)	% PHAKPA Disease level P2 at 4 ppm [1] [%]	% PHAKPA Disease level P2 at 16 ppm [1] [%]	% PHAKPA Disease level P6 at 4 ppm [2] [%]	% PHAKPA Disease level P6 at 16 ppm [2] [%]
CNC(=O)/C(=N/OC)c1cccc(C)c1CO/N=C/c1ccccc1C(F)(F)F [Compound 3]	36	2	83	21
CNC(=O)/C(=N/OC)c1cccc(C)c1CO/N=C/c1ccccc1 [Compound 2]	50	2	63	15
CO/N=C(/C(=O)OC)c1cccc(C)c1CO/N=C/c1ccccc1 [Compound 1]	100	96	90	83
